According to patent US20230228764A1, “METHOD FOR THE DIAGNOSIS AND TREATMENT OF ESSENTIAL PRIMARY HYPERTENSION” (Universiteit Maastricht, priority 2020, published 2023):
Entries after “also recorded” stand apart in the source; their conditions may differ.

What was measured:
[1] = system: femoral arteries of aged WT and KI mice; assay: Endothelium-independent relaxations induced by apo-sGC activator, wire myograph; settings: BAY 60-2770 0.01-10 μM
Procedure: (§1) To test which component of NO-cGMP signalling was most likely affected, we tested an uncoupling effect on endothelial NO synthase or an oxidative damage of the NO receptor, soluble guanylate cyclase yielding oxidized or heme-free apo-sGC [51, 52]. To test for sGC/apo-sGC, relaxing responses to the NO donor compound and sGC stimulator, PAPA/NO (0.01-10 μM), and to the aposGC activator, BAY 60-2770 (0.01-10 μM), were analyzed.
(§2) After mice were sacrificed, thoracic aortae, femoral and saphenous arteries were dissected free from perivascular adipose tissue and mounted in a wire myograph (DMT, Aarhus, DK). The organ chamber was filled with Krebs-Ringer bicarbonate-buffered salt solution (KRB) that was continuously aerated with 95% O2/5% CO2 and maintained at 37° C. […] Arterial contractile and relaxing responses were recorded at lumen diameters corresponding to a distending pressure of 100 mmHg in thoracic aorta and femoral artery and at 90% of this diameter in the resistance-sized saphenous artery. […] Consequently, wall stiffness can be determined equally by recording 1) changes in tension in response to imposed changes in radius (wire myography) or 2) changes in radius in response to changes in transmural pressure (pressure myography). […] The wall tension of the vessel segment was continuously recorded with LabChart Pro (AD Instruments, Oxford, UK).

[2] = system: femoral arteries of aged NOX5 KI mice; assay: Acetylcholine (Ach)-induced relaxation of isolated femoral arteries, wire myograph; settings: for Reversal of impaired Ach-induced relaxation by antioxidant: femoral arteries of aged KI mice contracted with 10 μM phenylephrine, Ach 10 μM
Text: (§3) To test the effect of endothelial NOX5 on endothelium-dependent, NO-cGMP mediated relaxation, arterial segments were pre-contracted by either depolarization (K^+), α1-adrenergic activation (phenylephrine), or endothelin-1; vaso-relaxation was then induced by acetylcholine (Ach) the classical endothelium-derived relaxing factor stimulant. […] When comparing ours to previous studies, the Ach-induced relaxation of saphenous arteries of both mice groups seemed attenuated. There are two possible explanations for this discrepancy. First, we have used very old mice and other studies used young mice.
After mice were sacrificed, thoracic aortae, femoral and saphenous arteries were dissected free from perivascular adipose tissue and mounted in a wire myograph (DMT, Aarhus, DK). The organ chamber was filled with Krebs-Ringer bicarbonate-buffered salt solution (KRB) that was continuously aerated with 95% O2/5% CO2 and maintained at 37° C. Passive stretch procedure was performed to mimic the physiologically relevant internal lumen diameter as previously described. Arterial contractile and relaxing responses were recorded at lumen diameters corresponding to a distending pressure of 100 mmHg in thoracic aorta and femoral artery and at 90% of this diameter in the resistance-sized saphenous artery. […] The diameter tension relationships were constructed according to the law of Laplace for a cylindrical tube: P=T/R (with P for transmural pressure, T for wall tension and R for the lumen radius of the tube). Consequently, wall stiffness can be determined equally by recording 1) changes in tension in response to imposed changes in radius (wire myography) or 2) changes in radius in response to changes in transmural pressure (pressure myography). Here we used the former approach because it has a higher throughput than the latter. Stress-strain relationships and even better “incremental elastic (Young's) modulus” (which require additional recording of wall thickness) only come into play to discriminate between structural and material property contributions to changes in arterial stiffness. Part of the isolated thoracic aorta was studied in the absence and part in the continuous presence of 10 μM indomethacin to inhibit production of prostaglandins that can act as endothelium-derived vasoactive factors in this vessel. The vessels were tested for their contractile response to 40 mM K^+, concentration-response curves of phenylephrine (0.01 to 100 μM) and endothelin-1 (1-256 nM) followed by acetylcholine (Ach) (0.01 to 100 μM), PAPA/NO (0.01-10 μM) or Bay60-2770 (0.01-10 μM)-induced relaxations. The wall tension of the vessel segment was continuously recorded with LabChart Pro (AD Instruments, Oxford, UK).

[3] = system: thoracic aorta of aged KI and WT mice; assay: Ach-induced relaxation of isolated thoracic aorta, wire myograph; settings: thoracic aorta contracted with 258 nM endothelin-1, 100 μM L-NAME
Text: as §3
as §2, with “DK).” for “DK). The organ chamber was filled with Krebs-Ringer bicarbonate-buffered salt solution (KRB) that was continuously aerated with 95% O2/5% CO2 and maintained at 37° C.”

[4] = system: saphenous arteries of aged KI and WT mice; assay: Ach-induced relaxation of isolated saphenous arteries, wire myograph; settings: saphenous arteries contracted with endothelin-1; 100 μM L-NAME; both types of mice
Text: as §3
as §2, with “DK).” for “DK). The organ chamber was filled with Krebs-Ringer bicarbonate-buffered salt solution (KRB) that was continuously aerated with 95% O2/5% CO2 and maintained at 37° C.”

[5] = system: femoral arteries of aged NOX5 KI mice; assay: Measurement of superoxide formation: DHE staining; settings: pre-treatment with 500 μM L-NAME for 30 min at 37° C.
Procedure: Superoxide was measured in femoral arteries using the florescence dye dihydroethidium (DHE) (Thermo Scientific Technology, The Netherlands). Frozen femoral arteries cryo-sections were fixated in 4% paraformaldehyde (PFA) in PBS and then incubated with 2 μM DHE for 30 minutes at 37° C. After three washing steps with PBS, slices were incubated with DAPI (Sigma-Aldrich, The Netherlands) […] for 10 min. Sections were washed in PBS and then mounted using a Dako Fluorescence Mounting Medium ([…], Agilent Technologies). Immunofluorescent signals were viewed using a Leica DM13000 B fluorescence microscope. Some arteries were pre-treated with 500 μM L-NAME for 30 min at 37° C. before performing the DHE staining.

[6] = system: femoral arteries, saphenous arteries and thoracic aortae of aged WT and KI mice; assay: Endothelium-independent relaxations induced by NO donor, wire myograph; settings: PAPA/NO 0.01-10 μM, thoracic aortae with/without indomethacin
Procedure: as §1, §2

[7] = system: hypertensive patients; settings: cited from earlier work
[8] = system: thoracic aorta of the KI and WT mice; assay: Agonist-induced contractile responses, wire myograph; settings: 10 μM indomethacin
Text: We next tested whether, alternatively, chronic changes in the underlying arterial smooth muscle layer could have contributed to the observed blood pressure and vasomotor phenotypes in aged NOX5 KI mice. Contractile responses to K^+ and the sensitivity and maximal responsiveness to phenylephrine and endothelin-1 did, however, not differ between KI and WT mice in all arterial segments (FIGS. 10 A-I).
as §2

[9] = system: elevated blood pressure induced by NOS uncoupling; settings: preclinical, refs [85, 86]; cited from earlier work

In the case of O=C(O)CCCCN(CCc1cc(F)ccc1OCc1ccc(-c2ccc(C(F)(F)F)cc2)cc1)Cc1ccc(C(=O)O)cc1 [BAY 60-2770], the “Relaxing response, WT vs KI mice” value [1] is reported as “Neither the PAPA/NO (FIGS. 13 A-C) nor the BAY 60-2770 response (FIG. 11 D) differed” and the “Relaxing response, WT vs KI mice” value ([1]; listed as Bay60-2770) is reported as “did not differ”.
In the case of COC(=O)[C@@H](N)CCCNC(=N)N[N+](=O)[O-] [L-NAME], the “Reversal of the relaxing effects of Ach” value ([2]; femoral artery contracted with 258 nM endothelin-1, 100 μM L-NAME, KI and WT mice) is reported as “reversed”, the “Reversal of the relaxing effects of Ach” value [3] is reported as “reversed” and the “Reversal of the relaxing effects of Ach” value [4] is reported as “did not modify the relaxing effects of Ach”. For the same molecule, the “Superoxide formation (DHE staining), increase in KI vs WT” value [5] was “this increase was inhibited”.
In the case of CC(=O)N[C@@H](CS)C(=O)O [N-acetylcysteine], the “Reversal of impaired Ach-induced relaxation by antioxidant” value ([2]; 10 μM N-acetylcysteine) is reported as “not reversed; also recorded: Neither 10 μM N-acetylcysteine nor 100 μM tempol, however, were effective”.
In the case of CCCN(CCCN)/[N+]([O-])=N/O [PAPA/NO], the “Relaxing response, WT vs KI mice” value [6] is reported as “Neither the PAPA/NO (FIGS. 13 A-C) nor the BAY 60-2770 response (FIG. 11 D) differed” and the “Relaxing response, WT vs KI mice” value ([6]; listed as PAPA NO) is reported as “did not differ”.
For Nc1nc2ncc(CNc3ccc(C(=O)N[C@@H](CCC(=O)O)C(=O)O)cc3)nc2c(=O)[nH]1 [folic acid], the “Effect on elevated blood pressure” value ([7]; clinical, by improving endothelial function, refs [88, 89]) is listed as “clinically effective to reduce elevated blood pressure” and the “Risk of cardiovascular and cerebrovascular events” value ([7]; hypertensive patients, alone or in combination with anti-hypertensives, refs [90-92]) is listed as “reduces the risk of cardiovascular and cerebrovascular events”.
With COc1ccc2c(c1)c(CC(=O)O)c(C)n2C(=O)c1ccc(Cl)cc1 [indomethacin] the “Blunting of agonist-induced contractile responses, KI vs WT mice” value [8] was “similar”.
For C[C@H](O)C(=O)C1=Nc2c(nc(N)[nH]c2=O)NC1 [sepiapterin], the “Ach-induced relaxation after pre-treatment” value ([2]; femoral arteries of aged KI mice pre-contracted with phenylephrine, sepiapterin 100 μM) is listed as “improved relaxation in KI; also recorded: greatly improved and became indistinguishable from those in WT” and the “Effect on elevated blood pressure” value [9] is listed as “lower elevated blood pressure”.
With CC1(C)CC(O)CC(C)(C)N1[O] [tempol] the “Reversal of impaired Ach-induced relaxation by antioxidant” value ([2]; 100 μM tempol) was “not reversed; also recorded: Neither 10 μM N-acetylcysteine nor 100 μM tempol, however, were effective”.
